Experimental data: the supplement of paper PMC10307832

Key:
Experiment in all cases: relative viability (nuclei count vs DMSO), 5 days (fraction); higher = more cells survive
CAL-12T = tested on: CAL-12T
Procedure, shortened: (§1)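 Relative viability equals treated-well nuclei counts divided by vehicle-well nuclei counts. Counts came from 4× images of lung cancer cell lines grown in 1536-well plates for 5 days after pin-tool dosing on the day after seeding. Dosing used one drug alone or a fixed anchor-drug dose plus five library-drug doses (not always all listed) in √10 steps, and values are medians of duplicate plates.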

COR-L 105 = tested on: COR-L 105
Procedure, shortened: as §1

H3255 = tested on: H3255
Procedure, shortened: as §1

HARA = tested on: HARA
Procedure, shortened: as §1

HCC-15 = tested on: HCC-15
Procedure, shortened: as §1

HCC-366 = tested on: HCC-366
Procedure, shortened: as §1

LC-2-ad = tested on: LC-2-ad
Procedure, shortened: as §1

LU99A = tested on: LU99A
Procedure, shortened: as §1

NCI-H1395 = tested on: NCI-H1395
Procedure, shortened: as §1

NCI-H1666 = tested on: NCI-H1666
Procedure, shortened: as §1

NCI-H1734 = tested on: NCI-H1734
Procedure, shortened: as §1

NCI-H1944 = tested on: NCI-H1944
Procedure, shortened: as §1

NCI-H1975 = tested on: NCI-H1975
Procedure, shortened: as §1

NCI-H1993 = tested on: NCI-H1993
Procedure, shortened: as §1

NCI-H2228 = tested on: NCI-H2228
Procedure, shortened: as §1

NCI-H3122 = tested on: NCI-H3122
Procedure, shortened: as §1

NCI-H520 = tested on: NCI-H520
Procedure, shortened: as §1

NCI-H647 = tested on: NCI-H647
Procedure, shortened: as §1

NCI-H661 = tested on: NCI-H661
Procedure, shortened: as §1

NCI-H838 = tested on: NCI-H838
Procedure, shortened: as §1

PC-14 = tested on: PC-14
Procedure, shortened: as §1

PC-3 [JPC-3] = tested on: PC-3 [JPC-3]
Procedure, shortened: as §1

SK-LU-1 = tested on: SK-LU-1
Procedure, shortened: as §1

SMILES: O=C(O)CCCCC(CCSCc1ccccc1)SCc1ccccc1 (stereo not given) [CPI-613] + CS(=O)(=O)CCNCc1ccc(-c2ccc3ncnc(Nc4ccc(OCc5cccc(F)c5)c(Cl)c4)c3c2)o1 [Lapatinib] (partner 2 µM)
- relative viability (CAL-12T; first compound 5 µM): 0.605
- relative viability (CAL-12T; first compound 15.81 µM): 0.532
- relative viability (CAL-12T; first compound 50 µM): 0.603
- relative viability (CAL-12T; first compound 158.11 µM): 0.551
- relative viability (CAL-12T; first compound 500 µM): 0.56
- relative viability (COR-L 105; first compound 5 µM): 0.364
- relative viability (COR-L 105; first compound 15.81 µM): 0.323
- relative viability (COR-L 105; first compound 50 µM): 0.377
- relative viability (COR-L 105; first compound 158.11 µM): 0.291
- relative viability (COR-L 105; first compound 500 µM): 0.263
- relative viability (H3255; first compound 5 µM): 0.234
- relative viability (H3255; first compound 15.81 µM): 0.253
- relative viability (H3255; first compound 50 µM): 0.291
- relative viability (H3255; first compound 158.11 µM): 0.256
- relative viability (H3255; first compound 500 µM): 0.25
- relative viability (HARA; first compound 5 µM): 0.702
- relative viability (HARA; first compound 15.81 µM): 0.678
- relative viability (HARA; first compound 50 µM): 0.792
- relative viability (HARA; first compound 158.11 µM): 0.521
- relative viability (HARA; first compound 500 µM): 0.0307
- relative viability (HCC-15; first compound 5 µM): 0.785
- relative viability (HCC-15; first compound 15.81 µM): 0.801
- relative viability (HCC-15; first compound 50 µM): 0.682
- relative viability (HCC-15; first compound 158.11 µM): 0.599
- relative viability (HCC-15; first compound 500 µM): 0.285
- relative viability (HCC-366; first compound 5 µM): 0.959
- relative viability (HCC-366; first compound 15.81 µM): 1.02
- relative viability (HCC-366; first compound 50 µM): 1
- relative viability (HCC-366; first compound 158.11 µM): 0.284
- relative viability (HCC-366; first compound 500 µM): 0.0085
- relative viability (LC-2-ad; first compound 5 µM): 0.746
- relative viability (LC-2-ad; first compound 15.81 µM): 0.859
- relative viability (LC-2-ad; first compound 50 µM): 0.868
- relative viability (LC-2-ad; first compound 158.11 µM): 0.255
- relative viability (LC-2-ad; first compound 500 µM): 0.0059
- relative viability (LU99A; first compound 5 µM): 0.937
- relative viability (LU99A; first compound 15.81 µM): 0.918
- relative viability (LU99A; first compound 50 µM): 0.887
- relative viability (LU99A; first compound 158.11 µM): 0.608
- relative viability (LU99A; first compound 500 µM): 0.0424
- relative viability (NCI-H1395; first compound 5 µM): 1.01
- relative viability (NCI-H1395; first compound 15.81 µM): 0.91
- relative viability (NCI-H1395; first compound 50 µM): 1.08
- relative viability (NCI-H1395; first compound 158.11 µM): 0.773
- relative viability (NCI-H1395; first compound 500 µM): 0.894
- relative viability (NCI-H1666; first compound 5 µM): 0.629
- relative viability (NCI-H1666; first compound 15.81 µM): 0.555
- relative viability (NCI-H1666; first compound 50 µM): 0.656
- relative viability (NCI-H1666; first compound 158.11 µM): 0.162
- relative viability (NCI-H1666; first compound 500 µM): 0.109
- relative viability (NCI-H1734; first compound 5 µM): 0.939
- relative viability (NCI-H1734; first compound 15.81 µM): 0.686
- relative viability (NCI-H1734; first compound 50 µM): 1
- relative viability (NCI-H1734; first compound 158.11 µM): 0.349
- relative viability (NCI-H1734; first compound 500 µM): 0.116
- relative viability (NCI-H1944; first compound 5 µM): 0.818
- relative viability (NCI-H1944; first compound 15.81 µM): 0.725
- relative viability (NCI-H1944; first compound 50 µM): 0.753
- relative viability (NCI-H1944; first compound 158.11 µM): 0.77
- relative viability (NCI-H1944; first compound 500 µM): 0.632
- relative viability (NCI-H1975; first compound 5 µM): 0.89
- relative viability (NCI-H1975; first compound 15.81 µM): 0.832
- relative viability (NCI-H1975; first compound 50 µM): 0.821
- relative viability (NCI-H1975; first compound 158.11 µM): 0.824
- relative viability (NCI-H1975; first compound 500 µM): 0.0608
- relative viability (NCI-H1993; first compound 5 µM): 0.777
- relative viability (NCI-H1993; first compound 15.81 µM): 0.706
- relative viability (NCI-H1993; first compound 50 µM): 0.774
- relative viability (NCI-H1993; first compound 158.11 µM): 0.567
- relative viability (NCI-H1993; first compound 500 µM): 0.41
- relative viability (NCI-H2228; first compound 5 µM): 0.817
- relative viability (NCI-H2228; first compound 15.81 µM): 0.979
- relative viability (NCI-H2228; first compound 50 µM): 0.832
- relative viability (NCI-H2228; first compound 158.11 µM): 0.406
- relative viability (NCI-H2228; first compound 500 µM): 0.0151
- relative viability (NCI-H3122; first compound 5 µM): 1.02
- relative viability (NCI-H3122; first compound 15.81 µM): 0.971
- relative viability (NCI-H3122; first compound 50 µM): 0.994
- relative viability (NCI-H3122; first compound 158.11 µM): 0.856
- relative viability (NCI-H3122; first compound 500 µM): 0.0332
- relative viability (NCI-H520; first compound 5 µM): 0.887
- relative viability (NCI-H520; first compound 15.81 µM): 0.634
- relative viability (NCI-H520; first compound 50 µM): 0.912
- relative viability (NCI-H520; first compound 158.11 µM): 0.264
- relative viability (NCI-H520; first compound 500 µM): 0.103
- relative viability (NCI-H647; first compound 5 µM): 0.962
- relative viability (NCI-H647; first compound 15.81 µM): 0.698
- relative viability (NCI-H647; first compound 50 µM): 0.757
- relative viability (NCI-H647; first compound 158.11 µM): 0.27
- relative viability (NCI-H647; first compound 500 µM): 0.0102
- relative viability (NCI-H661; first compound 5 µM): 0.419
- relative viability (NCI-H661; first compound 15.81 µM): 0.367
- relative viability (NCI-H661; first compound 50 µM): 0.581
- relative viability (NCI-H661; first compound 158.11 µM): 0.49
- relative viability (NCI-H661; first compound 500 µM): 0.576
- relative viability (NCI-H838; first compound 5 µM): 0.862
- relative viability (NCI-H838; first compound 15.81 µM): 0.783
- relative viability (NCI-H838; first compound 50 µM): 0.846
- relative viability (NCI-H838; first compound 158.11 µM): 0.601
- relative viability (NCI-H838; first compound 500 µM): 0.0634
- relative viability (PC-14; first compound 5 µM): 0.347
- relative viability (PC-14; first compound 15.81 µM): 0.307
- relative viability (PC-14; first compound 50 µM): 0.303
- relative viability (PC-14; first compound 158.11 µM): 0.251
- relative viability (PC-14; first compound 500 µM): 0.259
- relative viability (PC-3 [JPC-3]; first compound 5 µM): 0.493
- relative viability (PC-3 [JPC-3]; first compound 15.81 µM): 0.439
- relative viability (PC-3 [JPC-3]; first compound 50 µM): 0.425
- relative viability (PC-3 [JPC-3]; first compound 158.11 µM): 0.415
- relative viability (PC-3 [JPC-3]; first compound 500 µM): 0.407
- relative viability (SK-LU-1; first compound 5 µM): 0.818
- relative viability (SK-LU-1; first compound 15.81 µM): 0.692
- relative viability (SK-LU-1; first compound 50 µM): 0.752
- relative viability (SK-LU-1; first compound 158.11 µM): 0.587
- relative viability (SK-LU-1; first compound 500 µM): 0.379
